Measurements reported in patent US20160158251A1, “COMPOSITION FOR PREVENTING OR TREATING MUSCULAR ATROPHY OR PROMOTING MUSCULAR REGENERATION IN SUBJECT COMPRISING SULFONAMIDE COMPOUND AND USE THEREOF” (Samsung Electronics Co., Ltd., priority 2014, published 2016).

Tests used:
Atrogin-1 = Atrogin-1 mRNA expression in differentiated C2C12 cells treated with dexamethasone (real time PCR); assay type: cell-based, mouse; conditions: sulfadiazine (1, 10 or 100 μM) 24 hours, then 2 μM dexamethasone 24 hours, vs. dexamethasone only (FIG. 2A)
Procedure: (§1) C2C12 cell lines (mouse gastrocnemius muscle, ATCC® CRL-1772™) were seeded in a 10% FBS/DMEM and incubated at 37° C. in a 5% CO2 incubator. When the cells were 70% confluent, the culture medium was replaced with 2% FBS/DMEM and the cells were cultured for 4 days to completely induce differentiation into muscle cells. C2C12 cell lines are mouse myoblast cell lines obtained by continuous culture of myoblast cells cultured from gastrocnemius muscle of C3H mice.
(§2) When C2C12 cells were completely differentiated into muscle cells, the culture medium was removed therefrom, and 4 ml of a fresh culture medium including 1 μM, 10 μM, or 100 μM of sulfadiazine (Sigma Aldrich) was added thereto, and then, the cells were cultured at 37° C. in a 5% CO2 incubator for 24 hours. […]
(§3) A Trizol reagent (Invitrogen) was added to the collected cells, and total RNA was separated therefrom according to manufacturer's protocols. […] Amounts of mRNA of Atrogin-1 and MuRF-1 were quantified using a real time PCR device (MyiQPCR instrument, BioRad) that is a device measuring SYBR Green. […]
(§4) Values obtained via amplification were normalized to GAPDH gene expression, and relative expression levels of mRNA of Atrogin-1 and MURF-1 were quantified. The quantified relative expression levels (arbitrary unit (AU)) of mRNA of Atrogin-1 and MURF-1 are illustrated in FIGS. 2A and 2B, respectively (*: p<0.05 vs. dexamethasone)

MuRF-1 = MuRF-1 mRNA expression in differentiated C2C12 cells treated with dexamethasone (real time PCR); assay type: cell-based, mouse; conditions: sulfadiazine (1, 10 or 100 μM) 24 hours, then 2 μM dexamethasone 24 hours, vs. dexamethasone only (FIG. 2B)
Procedure: as §1, §2, §3, §4

[1] = test system: Human skeletal muscle satellite (HSkMS) cells; experiment: Proliferation of human skeletal muscle satellite cells (cell count by hemocytometer, serum and growth factor starvation); assay type: cell-based; conditions: 24 hours, in comparison with serum starvation (FIG. 1)
Procedure: Human skeletal muscle satellite (HSkMS) cells were prepared to identify whether proliferation of skeletal muscle satellite cells is promoted by sulfonamide compounds.
The seeded HSkMS cells were cultured at 37° C. in a 5% CO2 incubator for 24 hours. Then, 0.1 μM, 1 μM, and 10 μM of each of sulfadiazine (Sigma-Aldrich), sulfamethoxazole (Sigma-Aldrich), sulfadoxine (Sigma-Aldrich), and sulfaguanidine (Sigma-Aldrich), as sulfonamide compounds, were added to the HSkMS cells, and the cells were incubated at 37° C. in a 5% CO2 incubator for 24 hours. After the incubation, the numbers of HSkMS cells were calculated using a hemocytometer.

| Compound | expression of mRNA of Atrogin-1 (Atrogin-1) | expression of mRNA of MuRF1 (MuRF-1) | proliferation of the HSkMS cells ([1]; 1 μM) | proliferation of the HSkMS cells ([1]; 10 μM) |
| --- | --- | --- | --- | --- |
| Nc1ccc(S(=O)(=O)Nc2ncccn2)cc1 [sulfadiazine] | decreased | decreased | promoted in all groups, in comparison with serum starvation, except for the groups | promoted in all groups, in comparison with serum starvation, except for the groups |
| NC(N)=NS(=O)(=O)c1ccc(N)cc1 [sulfaguanidine] | – | – | – | promoted in all groups, in comparison with serum starvation, except for the groups |
| Cc1cc(NS(=O)(=O)c2ccc(N)cc2)no1 [sulfamethoxazole] | – | – | – | promoted in all groups, in comparison with serum starvation, except for the groups |
